In brackets after ≈: the same amount, converted by molar mass. Peptide text beside a SMILES is read from it.

Assay type in all cases: functional
The subject of one assay is OVCAR-3. Description: Growth inhibitory activity against OVCAR-3 human cancer cell line.
A further assay deals with NCI-H460. Briefly: Growth inhibitory activity against NCI-H460 human cancer cell line.
Another assay concerns SK-MEL-5. Briefly: Growth inhibitory activity against SK-MEL-5 human cancer cell line.
A further assay concerns SF-295. Briefly: Growth inhibitory activity against SF-295 human cancer cell line.
Another assay deals with KM-20L2. Briefly: Growth inhibitory activity against KM20L2 human cancer cell line.
A further assay deals with A498. Briefly: Growth inhibitory activity against A498 human cancer cell line.
The next assay has as its system P388. Description: Inhibitory activity against murine P388 leukemia cell line. To be noted: Mus musculus, read-out: ED50 (the source's name).

Consider `CC[C@H](C)[C@@H]1NC(=O)[C@H](CC(C)C)NC(=O)[C@@H]2CCCN2C(=O)[C@H](C(C)C)NC(=O)[C@H](Cc2ccc(O)cc2)NC(=O)[C@@H]2CCCN2C(=O)[C@@H]2CCCN2C(=O)[C@H]([C@@H](C)CC)NC1=O` [Hymenistatin 1] (cyclo(IIPPYVPL)), for which the GI50 was found to be 0.04 µg/mL (≈ 0.0448 µM) in the assay on OVCAR-3; 0.3 µg/mL (≈ 0.336 µM) with NCI-H460; 0.6 µg/mL (≈ 0.672 µM) in the assay with SK-MEL-5; 0.3 µg/mL (≈ 0.336 µM) with SF-295; 0.1 µg/mL (≈ 0.112 µM) with KM-20L2; 0.7 µg/mL (≈ 0.784 µM) in the assay with A498.
Regarding `CC[C@H](C)[C@@H]1NC(=O)[C@H](CC(C)C)NC(=O)[C@@H]2CCCN2C(=O)[C@H](C(C)C)NC(=O)[C@H](Cc2ccc(O)cc2)NC(=O)[C@@H]2CCCN2C(=O)[C@@H]2CCCN2C(=O)[C@H](CC(C)C)NC1=O` [AXINASTATIN 5] (cyclo(ILPPYVPL)), the concentration for 50% growth inhibition (GI50) with OVCAR-3 (read-out: GI50) amounted to 0.3 µg/mL (≈ 0.336 µM); in the assay on NCI-H460 it was 0.5 µg/mL (≈ 0.56 µM); in the assay with SK-MEL-5 (read-out: GI50) it was 0.5 µg/mL (≈ 0.56 µM); in the assay with SF-295 (read-out: GI50), 1.6 µg/mL (≈ 1.79 µM); in the assay on KM-20L2 (read-out: GI50), 0.7 µg/mL (≈ 0.784 µM); in the assay with A498 (read-out: GI50), 2.3 µg/mL (≈ 2.58 µM). In addition, the EC50 in the assay with P388 stood at 3.5 µg/mL (≈ 3.92 µM).

By GI50 is commonly meant the concentration that inhibits growth by half.
